Measurements taken from ChEMBL document CHEMBL4184305, “Inhibition of histone lysine methyltransferases G9a and GLP by ejection of structural Zn(II)” (Bioorg Med Chem Lett, 2018).
Counter-ions that a name gives are not always drawn. Active and inactive are the calls of the source. The calls are words filed in the database; no cut-off is given here.

How the values were obtained:
[1] = target: T1, Histone-lysine N-methyltransferase EHMT1 (Homo sapiens, UniProt Q9H9B1); experiment: (§1) Inhibition of wild type recombinant human histone lysine methyltransferase GLP (951 to 1235 residues) expressed in Escherichia coli Rosetta BL21 DE3 PlysS using ARTKQTARKSTGGKA as substrate preincubated for 5 mins followed by substrate/SAM addition measured after 60 mins by MALDI-TOF MS analysis
T1 sequence (Q9H9B1 whole entry): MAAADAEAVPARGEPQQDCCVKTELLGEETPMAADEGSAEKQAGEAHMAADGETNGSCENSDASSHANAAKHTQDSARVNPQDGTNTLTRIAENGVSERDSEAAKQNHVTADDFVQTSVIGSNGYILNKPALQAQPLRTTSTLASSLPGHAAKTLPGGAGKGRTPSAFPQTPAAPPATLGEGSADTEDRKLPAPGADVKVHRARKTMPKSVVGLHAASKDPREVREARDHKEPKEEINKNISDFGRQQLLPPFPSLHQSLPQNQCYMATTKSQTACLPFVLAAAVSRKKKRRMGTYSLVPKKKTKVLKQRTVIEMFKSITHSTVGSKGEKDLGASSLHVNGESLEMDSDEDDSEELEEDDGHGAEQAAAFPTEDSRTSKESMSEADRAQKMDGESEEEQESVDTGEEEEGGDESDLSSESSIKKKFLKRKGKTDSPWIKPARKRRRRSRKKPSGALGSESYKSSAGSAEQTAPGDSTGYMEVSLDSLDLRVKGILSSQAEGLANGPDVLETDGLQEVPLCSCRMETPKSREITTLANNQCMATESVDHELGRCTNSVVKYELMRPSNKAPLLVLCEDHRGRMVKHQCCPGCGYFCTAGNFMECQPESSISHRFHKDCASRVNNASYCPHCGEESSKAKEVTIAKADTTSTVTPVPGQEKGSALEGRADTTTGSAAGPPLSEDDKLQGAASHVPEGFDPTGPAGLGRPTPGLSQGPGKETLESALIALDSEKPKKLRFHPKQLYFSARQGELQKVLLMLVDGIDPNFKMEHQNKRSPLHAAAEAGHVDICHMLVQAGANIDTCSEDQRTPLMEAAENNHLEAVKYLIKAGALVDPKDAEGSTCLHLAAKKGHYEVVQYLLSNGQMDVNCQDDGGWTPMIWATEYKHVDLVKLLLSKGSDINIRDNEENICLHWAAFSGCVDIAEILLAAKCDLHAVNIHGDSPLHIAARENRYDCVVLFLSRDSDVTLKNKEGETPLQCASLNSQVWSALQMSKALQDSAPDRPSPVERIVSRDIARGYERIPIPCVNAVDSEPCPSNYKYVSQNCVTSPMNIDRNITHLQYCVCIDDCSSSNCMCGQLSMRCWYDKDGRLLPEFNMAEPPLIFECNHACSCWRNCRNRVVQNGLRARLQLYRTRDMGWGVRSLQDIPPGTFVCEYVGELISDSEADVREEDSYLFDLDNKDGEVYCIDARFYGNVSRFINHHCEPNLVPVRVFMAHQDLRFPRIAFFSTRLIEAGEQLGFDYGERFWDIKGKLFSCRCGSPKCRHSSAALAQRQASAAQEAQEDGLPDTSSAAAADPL

[2] = target: T2, Histone-lysine N-methyltransferase EHMT2 (Homo sapiens, UniProt Q96KQ7); experiment: (§2) Inhibition of wild type recombinant human histone lysine methyltransferase G9a (913 to 1193 residues) expressed in Escherichia coli Rosetta BL21 DE3 PlysS using ARTKQTARKSTGGKA as substrate preincubated for 5 mins followed by substrate/SAM addition measured after 60 mins by MALDI-TOF MS analysis
T2 sequence (Q96KQ7 whole entry): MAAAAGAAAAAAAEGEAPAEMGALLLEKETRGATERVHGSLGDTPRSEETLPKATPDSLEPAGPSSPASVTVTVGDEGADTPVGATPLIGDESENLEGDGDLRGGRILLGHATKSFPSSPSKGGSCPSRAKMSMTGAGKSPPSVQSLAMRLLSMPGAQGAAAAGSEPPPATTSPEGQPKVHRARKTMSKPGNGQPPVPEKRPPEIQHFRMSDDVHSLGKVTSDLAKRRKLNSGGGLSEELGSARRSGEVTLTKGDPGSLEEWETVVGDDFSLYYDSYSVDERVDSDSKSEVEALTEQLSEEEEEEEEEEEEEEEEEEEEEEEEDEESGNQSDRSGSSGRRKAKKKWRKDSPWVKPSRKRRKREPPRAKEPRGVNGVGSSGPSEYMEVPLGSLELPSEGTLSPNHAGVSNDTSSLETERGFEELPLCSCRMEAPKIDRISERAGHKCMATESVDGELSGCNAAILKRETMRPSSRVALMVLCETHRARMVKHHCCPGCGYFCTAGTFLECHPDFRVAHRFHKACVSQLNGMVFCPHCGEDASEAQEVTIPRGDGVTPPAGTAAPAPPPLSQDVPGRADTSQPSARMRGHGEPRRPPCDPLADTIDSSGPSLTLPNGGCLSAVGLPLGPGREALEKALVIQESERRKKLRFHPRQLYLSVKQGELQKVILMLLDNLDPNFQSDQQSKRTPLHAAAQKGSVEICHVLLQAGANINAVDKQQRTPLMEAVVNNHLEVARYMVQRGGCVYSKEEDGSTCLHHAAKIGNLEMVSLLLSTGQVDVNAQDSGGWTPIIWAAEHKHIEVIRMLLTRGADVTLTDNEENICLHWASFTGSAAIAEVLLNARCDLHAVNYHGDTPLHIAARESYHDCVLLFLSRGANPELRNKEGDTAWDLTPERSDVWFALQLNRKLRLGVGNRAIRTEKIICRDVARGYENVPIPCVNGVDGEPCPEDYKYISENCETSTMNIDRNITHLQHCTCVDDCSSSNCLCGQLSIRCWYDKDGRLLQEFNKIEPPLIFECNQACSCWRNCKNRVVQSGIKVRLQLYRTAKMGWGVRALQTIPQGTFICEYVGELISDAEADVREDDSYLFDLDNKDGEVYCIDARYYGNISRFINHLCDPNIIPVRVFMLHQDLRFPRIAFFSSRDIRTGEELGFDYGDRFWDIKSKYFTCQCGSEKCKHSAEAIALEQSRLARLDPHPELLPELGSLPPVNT

[3] = target: T3, Histone-lysine N-methyltransferase EHMT1 (Homo sapiens) (UniProt Q9H9B1); experiment: as §1, with “PlysS at 10 uM” for “PlysS”
T3 sequence (whole entry): T1 sequence (Q9H9B1 whole entry)

[4] = target: T3, Histone-lysine N-methyltransferase EHMT1 (Homo sapiens); experiment: Inhibition of wild type recombinant human histone lysine methyltransferase GLP (951 to 1235 residues) expressed in Escherichia coli Rosetta BL21 DE3 PlysS assessed as zinc ions ejection from Cys4-Zn finger at 100 uM by FluoZin-3 based fluorescence assay
[5] = target: T4, Histone-lysine N-methyltransferase EHMT2 (Homo sapiens) (UniProt Q96KQ7); experiment: as §2, with “PlysS at 10 uM” for “PlysS”
T4 sequence (whole entry): T2 sequence (Q96KQ7 whole entry)

[6] = target: T3, Histone-lysine N-methyltransferase EHMT1 (Homo sapiens); experiment: as §1, with “PlysS at 100 uM” for “PlysS”
[7] = target: T4, Histone-lysine N-methyltransferase EHMT2 (Homo sapiens); experiment: Inhibition of wild type recombinant human histone lysine methyltransferase G9a (913 to 1193 residues) expressed in Escherichia coli Rosetta BL21 DE3 PlysS assessed as zinc ions ejection from Cys4-Zn finger at 100 uM by FluoZin-3 based fluorescence assay
[8] = target: T4, Histone-lysine N-methyltransferase EHMT2 (Homo sapiens); experiment: as §2, with “PlysS at 100 uM” for “PlysS”

c1ccc(SSc2ccccn2)nc1
IC50 [1]: 2.7 µM
IC50 [2]: 0.65 µM
inhibition [3]: inactive
inhibition [4]: Active
inhibition [5]: inactive
inhibition [6]: > 50%
inhibition [7]: Active
inhibition [8]: > 50%

O=C1c2ccccc2C(=O)C1(O)O
IC50 [1]: > 100 µM
IC50 [2]: 54 µM
inhibition [3]: inactive
inhibition [4]: Active
inhibition [5]: inactive
inhibition [6]: 40%
inhibition [7]: Active

c1ccc([Se][Se]c2ccccc2)cc1
IC50 [1]: 0.86 µM
IC50 [2]: 0.55 µM
inhibition [3]: inactive
inhibition [4]: Active
inhibition [5]: inactive
inhibition [6]: > 50%
inhibition [7]: Active
inhibition [8]: > 50%

Cl[Se]c1ccccc1
IC50 [1]: 1.1 µM
IC50 [2]: 1.2 µM
inhibition [3]: inactive
inhibition [4]: Active
inhibition [5]: inactive
inhibition [6]: > 50%
inhibition [7]: Active
inhibition [8]: > 50%

Br[Se]c1ccccc1
IC50 [1]: 1.5 µM
IC50 [2]: 0.79 µM
inhibition [3]: inactive
inhibition [4]: Active
inhibition [5]: inactive
inhibition [6]: > 50%
inhibition [7]: Active
inhibition [8]: > 50%

O=C1c2ccccc2C(=O)N1[Se]c1ccccc1
IC50 [1]: 1 µM
IC50 [2]: 0.45 µM
inhibition [3]: inactive
inhibition [4]: Active
inhibition [5]: inactive
inhibition [6]: > 50%
inhibition [7]: Active
inhibition [8]: > 50%

COc1cc2c(NC3CCN(C(C)C)CC3)nc(C3CCCCC3)nc2cc1OCCCN1CCCC1
inhibition [4]: Active
inhibition [7]: Active

C[S+](C)[O-]
inhibition [4]: Active
inhibition [7]: Active

O=C1c2ccccc2C(=O)c2ccccc21 [ANTHRAQUINONE]
IC50 [1]: > 100 µM
IC50 [2]: > 100 µM
inhibition [3]: inactive
inhibition [4]: Active
inhibition [5]: inactive
inhibition [6]: 20%
inhibition [7]: Active
inhibition [8]: 20%

O=[Se](O)c1ccccc1 [BENZENE SELENOIC ACID]
IC50 [1]: 4.9 µM
IC50 [2]: 4.4 µM
inhibition [3]: inactive
inhibition [4]: Active
inhibition [5]: inactive
inhibition [6]: > 50%
inhibition [7]: Active
inhibition [8]: > 50%

NCCSSCCN [CYSTAMINE DIHYDROCHLORIDE]
IC50 [1]: > 100 µM
IC50 [2]: 15 µM
inhibition [3]: inactive
inhibition [4]: Active
inhibition [5]: inactive
inhibition [7]: Active

NCCS [CYSTEAMINE]
IC50 [1]: > 100 µM
IC50 [2]: > 100 µM
inhibition [3]: inactive
inhibition [4]: Active
inhibition [5]: inactive
inhibition [7]: Active

CCN(CC)C(=S)S [DITIOCARB SODIUM]
IC50 [1]: 81 µM
IC50 [2]: 9.2 µM
inhibition [3]: inactive
inhibition [4]: Active
inhibition [5]: inactive
inhibition [6]: > 50%
inhibition [7]: Active
inhibition [8]: > 50%

NC(=O)/N=N/C(N)=O [E927A]
IC50 [1]: 1.7 µM
IC50 [2]: 0.5 µM
inhibition [3]: inactive
inhibition [4]: Active
inhibition [5]: inactive
inhibition [6]: > 50%
inhibition [7]: Active
inhibition [8]: > 50%

N[C@@H](CCC(=O)N[C@@H](CS)C(=O)NCC(=O)O)C(=O)O [GLUTATHIONE]
IC50 [1]: > 100 µM
IC50 [2]: > 100 µM
inhibition [3]: inactive
inhibition [4]: Active
inhibition [5]: inactive
inhibition [7]: Active

O=C1C=CC(=O)c2ccccc21 [NAPHTHOQUINONE]
IC50 [1]: 14 µM
IC50 [2]: 2 µM
inhibition [3]: inactive
inhibition [4]: Active
inhibition [5]: inactive
inhibition [6]: > 50%
inhibition [7]: Active
inhibition [8]: > 50%

O=[Se](=O)(O)O [SODIUM SELENATE]
IC50 [1]: > 100 µM
IC50 [2]: > 100 µM
inhibition [3]: inactive
inhibition [4]: Active
inhibition [5]: inactive
inhibition [6]: 10%
inhibition [7]: Active
inhibition [8]: 10%

CN(C)C(=S)SSC(=S)N(C)C [THIRAM]
IC50 [1]: 1.1 µM
IC50 [2]: 0.55 µM
inhibition [3]: inactive
inhibition [4]: Active
inhibition [5]: inactive
inhibition [6]: > 50%
inhibition [7]: Active
inhibition [8]: > 50%
